According to patent publication US10435394B2, “Plant growth-promotion agent and method for promoting plant growth” (RIKEN, priority 2014, dated 2019):

How the values were obtained:
Assay type in all cases: in vivo
[1] = test system: Arabidopsis seeds (Columbia); assay: Plant growth promoting activity test using Arabidopsis, Experimental Method (2); conditions: 15, 30, 60 μM; for growth of aerial leaves: Day 26 of sprouting, FIGS. 15 and 16; for growth of aerial leaves (average leaf area per individual): Day 27 of sprouting, FIGS. 10 and 11; for plant growth promoting effects (state of sprouting): Day 22, FIGS. 6 and 7
Experimental: (§1) A ½ MS medium (agarose: 0.9%; sucrose: 1.5%; Murashige & Skoog plant culture medium×½ concentration) was prepared and autoclaved. Then, the test compounds were separately added thereto at 0 (DMSO alone), 15, 30, and 60 μM and solidified in a plastic petri dish. Arabidopsis seeds (Columbia) were sterilized with ethanol and sown to sprout, followed by observation of conditions of leaves and roots after sprouting. DMSO alone was added as a solvent for a control.

Tomato seeds (Micro-Tom) = assay: Plant growth promoting effects on tomato; conditions: 5, 15, 30 μM in 1/2 MS medium; Day 73 of sprouting; FIG. 17
Experimental: A ½ MS medium (agarose: 0.9%; sucrose: 1.5%; Murashige & Skoog plant culture medium×½ concentration) was prepared and autoclaved. Then, the compound 1 (PPZ) was added thereto at 0 (DMSO alone), 5, 15, and 30 μM and solidified in a plastic pot. Tomato seeds (Micro-Tom) were sterilized with hypochlorous acid and sown to sprout, followed by observation of conditions of leaves and stems after sprouting. DMSO alone was added as a solvent for a control.

[2] = test system: Arabidopsis seeds (Columbia); assay: Plant growth promoting activity test using Arabidopsis, Experimental Method (1); conditions: 5, 15, 30, 45, 60 μM
rice (Nipponbare) = assay: Plant growth promoting effects upon rice; conditions: 15 or 30 μM in water absorbed from the bottom of the pot from Day 7; Day 21 of sprouting; FIG. 18
Experimental: A plant pot containing rice culture soil was prepared and rice (Nipponbare) was sown therein. Rice was raised with distilled water until Day 7 of sprouting. Rice was allowed to absorb distilled water containing the compound 1 (PPZ) at a concentration of 0 (DMSO alone), 15, or 30 μM from the bottom of the pot from Day 7 of sprouting. Water used was discarded every 7 days and replaced by fresh water. Rice was photographed and the plant length of rice was measured on Day 21 of sprouting or Day of 14 from the start of treatment.

[3] = test system: Arabidopsis seeds (Columbia); assay: Plant growth promoting activity test using Arabidopsis, Experimental Method (1); conditions: for plant growth promoting effects (state of sprouting): 60 μM in 1/2 MS medium, Day 23, FIG. 1
Experimental: as §1, with “at” for “at 0 (DMSO alone), 15, 30, and”, “leaves, roots,” for “leaves”, “stems” for “roots”

c1cc2c(cc1CN1CCNCC1)OCO2 [Compound 1, 1-piperonylpiperazine]
growth of aerial leaves [1]: activity of promoting the growth of aerial leaves at the late growth stage | growth of aerial leaves (average leaf area per individual) [1]: activity of promoting growth of aerial leaves at the late growth stage | growth of aerial leaves and stems of tomato (Tomato seeds (Micro-Tom)): activity of promoting the growth of aerial leaves and stems of tomato | development/growth of lateral roots ([2]; Day 13 of sprouting, constant light irradiation, FIG. 2): activity of promoting development/growth of lateral roots in the early growth stage | growth of aerial leaves and petioles ([2]; Day 21 of sprouting, FIG. 3): activity of promoting growth of aerial leaves and petioles in the late growth stage | branching ([2]; Day 35 of sprouting, FIG. 4): activity of promoting branching | salt tolerance ([2]; sodium chloride 125 mM, Day 21 of sprouting, FIG. 5): action of enhancing salt tolerance | growth of aerial leaves and stems of rice (plant length) (rice (Nipponbare)): activity of promoting the growth of aerial leaves and stems of rice

c1cc2c(cc1CN1CCN(Cc3ccc4c(c3)OCO4)CC1)OCO2 [Compound 2, 1,4-dipiperonylpiperazine]
plant growth promoting effects (state of sprouting) [3]: decreased plant growth promoting activity and/or growth inhibition

c1cc2c(cc1CN1CCOCC1)OCO2 [Compound 4]
growth of aerial leaves [1]: activity of promoting the growth of aerial leaves at the late growth stage

c1ncn(Cc2ccc3c(c2)OCO3)n1 [Compound 6]
plant growth promoting effects (state of sprouting) [3]: decreased plant growth promoting activity and/or growth inhibition

c1cn(Cc2ccc3c(c2)OCO3)nn1 [Compound 7]
plant growth promoting effects (state of sprouting) [3]: decreased plant growth promoting activity and/or growth inhibition

COc1ccc(CN2CCOCC2)cc1OC [Compound 10]
elongation of the main root ([3]; not shown in figures): excellent plant growth promoting effects for elongation of the main root

CN1CCN(Cc2ccc3c(c2)OCO3)CC1 [Compound 11]
elongation of stems and roots ([3]; not shown in figures): excellent plant growth promoting effects for elongation of stems and roots

c1cc2c(cc1CN1CCSCC1)OCO2 [Compound 12]
elongation of stems and roots ([3]; not shown in figures): excellent plant growth promoting effects for elongation of stems and roots

COc1cc(CN2CCOCC2)cc(OC)c1OC [Compound 13]
plant growth promoting effects (state of sprouting) [1]: weak plant growth promoting effects

COc1ccc(N2CCOCC2)cc1OC [Compound 15]
plant growth promoting effects (state of sprouting) [1]: weak plant growth promoting effects

c1cc2c(cc1CCN1CCOCC1)OCO2 [Compound 16]
growth of aerial leaves [1]: activity of promoting the growth of aerial leaves at the late growth stage | growth of aerial leaves (average leaf area per individual) [1]: activity of promoting growth of aerial leaves at the late growth stage

O=S1(=O)CCN(Cc2ccc3c(c2)OCO3)CC1 [Compound 21]
growth of aerial leaves [1]: activity of promoting the growth of aerial leaves at the late growth stage

COCCN(C)Cc1ccc2c(c1)OCO2 [Compound 22]
growth of aerial leaves [1]: activity of promoting the growth of aerial leaves at the late growth stage
